Measured values: article PMC9818988, “SR Protein Kinase 1 Inhibition by TAF15” (Cells, 2022)

Key:
SRPK1 [1] = test: Pull-down of His-TAF15 with GST-SRPK1 immobilized on glutathione-Sepharose beads; format: binding; details: 60 min, room temperature, Coomassie blue staining
Experimental: Incubation of GST and GST-SRPK1 (2–3 μg each) immobilized on glutathione-Sepharose beads with His-TAF15 (2 μg) was performed in 20 mm Hepes, pH 7.5, 50 mM NaCl, and 1% Triton X-100 in a total volume of 0.5 mL. Similar incubations were also performed in the presence of 150 and 300 mM NaCl to test the stringency of the interaction. The incubations were carried out for 60 min at room temperature. The beads were harvested, washed three times with 500 μL of binding buffer, and resuspended in 25 μL of SDS sample buffer. Bound His-TAF15 was analyzed on 10% SDS-polyacrylamide gels and detected by Coomassie Blue staining.

SRPK1 [2] = test: In vitro phosphorylation of TAF15 as substrate by GST-SRPK1; format: biochemical; details: bacterially produced GST-SRPK1; GST-LBRNt(62–92) as positive substrate; autoradiography
Experimental: (§1) Kinase assays were carried out at 30 °C in a total volume of 25 μL containing 12 mM Hepes pH 7.5, 10 mM MgCl2, 25 μM ATP, 1–3 μg of the appropriate substrate (GST-LBRNt(62–92) or GST-TAF15 or His-TAF15), and 1–2 μg GST-SRPK1. For the inhibition assays, GST-SRPK1 was incubated with GST-LBRNt(62–92) under the assay conditions in the presence of increasing concentrations of GST-TAF15, GST-TAF15-RGG, and GST-TAF15(1–320) or Nucl, SAFA, and A2B1 peptides, as indicated. Nucl ([…]), SAFA ([…]) and A2B1 ([…]) peptides, comprising the RGG repeats of nucleolin, HNRPU (SAFA), and HNRNPA2B1, respectively, were provided by GeneCust, Boynes, France. The samples were incubated for 30 min, and the reaction was stopped by adding 6 μL of 5 × SDS sample buffer and heating at 95 °C for 3 min. Phosphoproteins were detected via autoradiography using Super RX (a Fuji medical X-ray film), and signals were quantified by excising the radioactive bands from the gel and scintillation counting. p-values were determined using a two-tailed, unpaired student’s t-test.

SRPK1 [3] = test: In vitro kinase inhibition assay: phosphorylation of GST-LBRNt(62–92) by GST-SRPK1; format: biochemical; details: for Effect of TAF15 fusion proteins on SRPK1 activity (phosphorylation of GST-LBRNt(62–92)): 1, 2, 4, 6, 8 μg GST-TAF15, 1.5, 3, 6, 10, 15 μg GST-TAF15-RGG, 2, 4, 8, 12, 16 μg GST-TAF15(1-320), 25 μL, [γ-32P]ATP, Cherenkof counting, two independent experiments; for Effect of TAF15 fusion proteins on SRPK1 activity (phosphorylation of GST-LBRNt(62–92)) / Inhibition of SRPK1 activity (phosphorylation of GST-LBRNt(62–92) by GST-SRPK1): 30 °C, 30 min; for Inhibition of SRPK1 activity (phosphorylation of GST-LBRNt(62–92) by GST-SRPK1): peptide 0.1, 0.2, 0.3, 0.4 and 0.5 mM, 25 μM ATP, autoradiography, bands counted, means ± SE of two independent experiments (Figure 8); for Relative inhibitory activity on SRPK1 among the three RGG peptides (proportional to number of RGG repeats): peptide 0.1–0.5 mM, substrate GST-LBRNt(62–92), two independent experiments (Figure 8B)
Experimental: as §1

SRPK1 [4] = test: Pull-down of SRPK1 from HeLa cell extracts with immobilized GST-TAF15 fusion proteins; format: binding; details: 150 mM NaCl, 1% Triton X-100, 60 min, room temperature; Western blot with anti-SRPK1
Experimental: Incubation of GST, GST-TAF15, GST-TAF15(1–320), and GST-TAF15-RGG (2–3 μg each) immobilized on glutathione-Sepharose beads with HeLa cell extracts (∼200 μg of total protein) was performed in 50 mm Tris-HCl, pH 7.5, 150 mm NaCl, 1% Triton X-100, and 0.5 mm PMSF (cell extraction buffer) in a total volume of 0.5 mL for 60 min at room temperature. Bound SRPK1 was analyzed on 10% SDS-polyacrylamide gels and detected by Western blotting using the anti-SRPK1 monoclonal antibody (611072, BD Biosciences, San Jose, CA, USA), an alkaline phosphatase-coupled goat anti-mouse secondary antibody, and a 5-bromo-4-chloro-3-indolyl phosphate/nitro blue tetrazolium substrate.

Molecule: His-TAF15: full-length TAF15 with an 8xHis tag fused to its N-terminus
- Binding of TAF15 to GST-SRPK1 in pull-down (SRPK1 [1]; increased salt, 0.3 M NaCl): reduced binding
- Binding of TAF15 to GST-SRPK1 in pull-down (SRPK1 [1]; physiological ionic strength, 50–150 mM NaCl): binds SRPK1
- Phosphorylation of TAF15 by SRPK1 (substrate test) (SRPK1 [2]): unable to phosphorylate

Molecule: GST-TAF15-RGG: C-terminal RGG domain (aa 319–589) of TAF15 as GST-fusion protein
- Effect of TAF15 fusion proteins on SRPK1 activity (phosphorylation of GST-LBRNt(62–92)) (SRPK1 [3]): inhibited SRPK1 as potently as full-length TAF15
- Binding of SRPK1 from HeLa cell extracts to immobilized GST fusion protein (SRPK1 [4]): could bind to SRPK1

Molecule: RGGNFGFGDSRGGGGNFGPGPGSNFRGG [A2B1, peptide comprising the RGG repeats of HNRNPA2B1, provided by GeneCust]
- Inhibition of SRPK1 activity (phosphorylation of GST-LBRNt(62–92) by GST-SRPK1) (SRPK1 [3]): could inhibit SRPK1
- Relative inhibitory activity on SRPK1 among the three RGG peptides (proportional to number of RGG repeats) (SRPK1 [3]): weaker

Molecule: GST-TAF15: full-length TAF15 as GST-fusion protein produced in bacteria
- Effect of TAF15 fusion proteins on SRPK1 activity (phosphorylation of GST-LBRNt(62–92)) (SRPK1 [3]): inhibited the phosphorylation of GST-LBRNt(62–92) in a dose-responsive manner
- Phosphorylation of TAF15 by SRPK1 (substrate test) (SRPK1 [2]): did not modify

Molecule: RGGGHRGRGGFNMRGGNFRGGAPGNRGGY [SAFA, peptide comprising the RGG repeats of HNRPU (SAFA), provided by GeneCust]
- Inhibition of SRPK1 activity (phosphorylation of GST-LBRNt(62–92) by GST-SRPK1) (SRPK1 [3]): could inhibit SRPK1

Molecule: RGGGRGGFGGRGGGRGGRGGFGGRGRGGFGGRGGFRGGRGG [Nucl, peptide comprising the RGG repeats of nucleolin, provided by GeneCust]
- Inhibition of SRPK1 activity (phosphorylation of GST-LBRNt(62–92) by GST-SRPK1) (SRPK1 [3]): could inhibit SRPK1
- Relative inhibitory activity on SRPK1 among the three RGG peptides (proportional to number of RGG repeats) (SRPK1 [3]): most potent inhibitory activity

B1: GST-TAF15(1–320): N-terminal part (aa 1–320) of TAF15 as GST-fusion protein (protein)
chain: MSDSGSYGQSGGEQQSYSTYGNPGSQGYGQASQSYSGYGQTTDSSYGQNYSGYSSYGQSYSQSYGGYENQKQSSYSQQPYNNQGQQQNMESSGSQGGRAPSYDQPDYGQQDSYDQQSGYDQHQGSYDEQSNYDQQHDSYSQNQQSYHSQRENYSHHTQDDRRDVSRYGEDNRGYGGSQGGGRGRGGYDKDGRGPMTGSSGGDRGGFKNFGGHRDYGPRTDADSESDNSDNNTIFVQGLGEGVSTDQVGEFFKQIGIIKTNKKTGKPMINLYTDKDTGKPKGEATVSFDDPPSAKAAIDWFDGKEFHGNIIKVSFATRRPE
modifications: left off: GST, end not stated, kept
notes: N-terminal part (aa 1–320) of TAF15 as GST-fusion protein
- Effect of TAF15 fusion proteins on SRPK1 activity (phosphorylation of GST-LBRNt(62–92)) (SRPK1 [3]): did not affect the kinase activity
- Effect of TAF15 fusion proteins on SRPK1 activity (phosphorylation of GST-LBRNt(62–92)) (SRPK1 [3]; listed as GST-TAF15(1-320)): has no effect on SRPK1 activity
- Binding of SRPK1 from HeLa cell extracts to immobilized GST fusion protein (SRPK1 [4]): no such interaction
